In paper PMC12226424, “Enhanced discovery of bacterial laccase‐like multicopper oxidase through computer simulation and metagenomic analysis of industrial wastewater” (FEBS Open Bio, 2025):

Legend:
Lac4 = details: 100 mM acetate, 2.5 mM copper sulfate, O2; listed optimum pH 4.0, 55 °C
Lac5-6 = tested on: T1, Lac5-6; details: 100 mM acetate, 2.5 mM copper sulfate, O2; listed optimum pH 4.0, 55 °C
T1 construct: gene Lac5 (GenBank PP987286)

Lac3 = details: 100 mM acetate, 2.5 mM copper sulfate, O2; listed optimum pH 4.6, 60 °C
Lac9 = details: 100 mM acetate, 2.5 mM copper sulfate, O2; listed optimum pH 4.8, 55 °C
Lac1 = details: 100 mM acetate, 2.5 mM copper sulfate, O2; listed optimum pH 5.0, 55 °C
Lac5 = details: 100 mM acetate, 2.5 mM copper sulfate, O2; listed optimum pH 4.0, 50 °C

CCn1c(=NN=c2sc3cc(S(=O)(=O)O)ccc3n2CC)sc2cc(S(=O)(=O)O)ccc21 [ABTS, 2,2′‐azinobis(3‑ethylbenzo‐6‑thiazolinesulfonic acid)]
Km (Lac4): 426 µM | Km (Lac5-6): 55 µM | Km (Lac3): 99 µM | Km (Lac9): 101 µM | Km (Lac1): 112 µM | Km (Lac5): 63 µM
